One test relates to senile plaques (Aβ). Description: Immunostaining of brain slices and quantification of senile plaques in Alzheimer's disease model mice. Format: in vivo, mouse. The note with it: 5×FAD mice; for increase in senile plaques formed of Aβ 42: oral administration for 3 months (compound 1A 50 mg/kg, compound 2A 200 mg/kg), cerebral cortex (FIGS. 4A, 4B). The procedure: (§1) 5×FAD Alzheimer's disease model mice were bred until 4 months old. Next, the compound 1A (50 mg/kg) or the compound 2A (200 mg/kg) prepared in Production Example 1 were orally administered to the mice for 3 months. Further, a non-administration group was also prepared as the control.
Subsequently, the brain was extracted from each mouse, paraffin-embedded slices (respectively with a thickness of 4 μm) were prepared using brain tissues, and immunohistochemical staining was performed according to the following method.
First, the slices were subjected to a formic acid treatment, and overnight incubation was performed at 4° C. using Mouse monoclonal Anti-Human Amyloid J3 (Total Aj3) (10027, IBL, Japan), [2] Rabbit polyclonal Anti-Human Amyloid J31-40 (AJ340) (18580, IBL, Japan), or [3] Rabbit polyclonal Anti-Human Amyloid J31-42 (AJ342) (18582, IBL, Japan) as primary antibodies. Further, the dilution ratios of antibodies were respectively [1]×50, [2]×200, and [3]×200. After the secondary antibodies were applied, the antibodies were visualized according to a polymer method using Histofine DAB substrate kit (NICHIREI CORPORATION, JAPAN).
Next, the tissue images of the stained samples were imaged using a bright field optical microscope (Olympus Corporation, BX53, DP73), and the images were stored according to the TIFF format (2400×1800 pixels, 3.5×2.6 mm, 2.13 μm^2/pixel). Each image was analyzed in the following manner using a particle analysis function of the image analysis processing software (Aquacosmos, Hamamatsu Photonics K.K., Japan). ROI was set as the cerebral cortex, particles were extracted according to a binarization method, and the area (the number of pixels) of each extracted particle was automatically calculated and output. In output particle data, particles with an area of 10 pixels or less were removed as noise and quantified.

Test [1] concerns the target T1, AQP 4 (Mus musculus, UniProt P55088).
T1 construct: from tissue; host or cells: brain of living B6SJL mice
Description: AQP 4 function promotion verification test using Alzheimer's disease model mice (H2 17O dynamics in brain by MRI). Format: in vivo. The note with it: 5×FAD Alzheimer's disease model mice, 50 mg/kg orally for 3 months, MRI (FIG. 3). The procedure:
as §1
With respect to the group of mice to which the compound 1A was administered and the non-administration group, images showing the dynamics of H2^17O in the brain of each mouse (cortex and CSF) at 8 second intervals were recorded until 70 seconds after the administration using MRI according to the same method as in Test Example 1. In FIG. 3, “Vehicle” indicates a non-administration group and “Compound 1A” indicates a compound 1A administration group. Further, relative values (CSF/Cortex) with respect to the cortex are also shown.

Test [2] concerns the target T2, human AQP 4 (hAQP 4)-M23 isoform (Homo sapiens, UniProt P55087).
T2 construct: expressed in transfected cells; host or cells: Xenopus laevis oocytes, microinjected with hAQP4-M23 mRNA (pSP35T vector)
Nature of the test: In vitro assay of oocyte volume under hypotonic condition, Xenopus laevis oocytes expressing AQP 4. The note with it: 20 μM compound, oocytes injected with hAQP 4-M23 mRNA, hypotonic reagent, up to 250 seconds, vs Blank (FIG. 1). Format: cell-based. The method, then: A Modified Barth's Medium (MBS) was provided to contain NaCl (88 mM), KCl (1 mM), HEPES (10 mM), MgSO4 (0.82 mM), NaHCO3 (2.4 mM), CaCl2 (0.91 mM), Ca(NO3)2 (0.33 mM), and gentamicin (100 mg/L), prepared to have a pH of 7.5, and used within one week after the preparation.
Isolation, preparation, and transfection of the oocytes of a Xenopus laevis were performed using a method described in the reference (Sakimura, et al., FEBS Lett., 272, 73 to 80, 1990.). Specifically, the oocytes were extracted from a female adult of a Xenopus laevis (weight of 150 g) and transferred to an MBS. Next, the oocytes were partially transferred to an isolation buffer solution, and the theca folliculi was manually removed so that the oocytes were exposed. […]
Next, the transferred oocytes were imaged using an SZX 16 microscope (manufactured by Olympus Corporation) connected to a DP 26 digital camera (manufactured by Olympus Corporation). […] A Hypotonic reagent (1000 μL) was added, and an assay initial image (t=3 seconds) and images at 15 second intervals of were recorded up to 250 seconds after the administration. […]
Subsequently, the images were transferred to a personal computer, and the region of each oocyte was evaluated using NIH Image-J. The value of the cross-sectional area of each oocyte in a plurality of equally determined measurement times was converted into a volume assumed to be spherical. […]

The target in test [3] is T1, AQP 4. Nature of the test: AQP 4 function promotion verification test using mice (H2 17O dynamics in brain by MRI). Format: in vivo. The following applies: normal male B6SJL-Tg mice, 8 weeks old, intraperitoneal administration, MRI until 70 seconds (FIG. 2B). The method, then: Normal male B6SJL-Tg mice obtained from Jackson Laboratory were bred until 8 weeks old. Next, indomethacin as a comparative example, the compound 2A prepared in Production Example 1, and physiological saline as the control were intraperitoneally administered to respectively five mice.
Thereafter, 0.2 mL of typical physiological saline containing 20% H2^17O was administered to the right femoral vein of each mouse through the PE10 tube inserted thereinto using an automatic syringe at 0.04 mL/sec. Next, images showing the dynamics of H2^17O in the brain of each mouse ((cortex) and the cerebrospinal fluid (CSF)) at 8 second intervals were recorded until 70 seconds after the administration using magnetic resonance imaging (MRI). The results are shown in FIG. 2A (administration of indomethacin) and FIG. 2B (administration of compound 2A). FIGS. 2A and 2B show relative values (CSF/Cortex) of CSF with respect to the cortex. In FIGS. 2A and 2B, “Vehicle” indicates a non-administration control group, “Indomethacin” indicates an indomethacin administration group, and “Compound 2A” indicates a compound 2A administration group.

The structures appear in SMILES notation.

Data on two compounds can be found in US10632084B2, “Aquaporin 4 function promotor and pharmaceutical composition for neurological disorders” (NIIGATA UNIVERSITY, priority 2016, dated 2020).

T1 sequence (P55088 whole entry): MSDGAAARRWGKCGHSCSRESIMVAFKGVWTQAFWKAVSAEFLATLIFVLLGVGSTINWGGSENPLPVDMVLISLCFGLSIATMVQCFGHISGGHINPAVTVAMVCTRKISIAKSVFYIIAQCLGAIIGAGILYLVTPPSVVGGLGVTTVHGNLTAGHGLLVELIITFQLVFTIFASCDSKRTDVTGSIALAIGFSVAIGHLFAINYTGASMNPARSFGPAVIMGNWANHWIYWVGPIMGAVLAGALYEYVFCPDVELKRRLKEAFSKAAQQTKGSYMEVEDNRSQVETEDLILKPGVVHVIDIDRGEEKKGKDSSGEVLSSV
T2 sequence (P55087 23-323): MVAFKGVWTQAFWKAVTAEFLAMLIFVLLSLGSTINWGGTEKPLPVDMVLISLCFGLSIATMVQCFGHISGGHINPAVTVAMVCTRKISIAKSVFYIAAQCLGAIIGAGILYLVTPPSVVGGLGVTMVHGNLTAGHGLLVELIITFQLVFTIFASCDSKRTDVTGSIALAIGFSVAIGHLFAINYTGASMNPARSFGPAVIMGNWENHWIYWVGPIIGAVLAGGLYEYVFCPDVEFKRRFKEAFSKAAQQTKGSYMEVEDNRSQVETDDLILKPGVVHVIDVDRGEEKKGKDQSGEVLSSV

For the compound `N=C(N)NCCS(=O)(=O)O` [compound 1A, 2-guanidino-1-ethanesulfonic acid], in the test with senile plaques (Aβ) (50 mg/kg orally for 3 months, cerebral cortex (FIGS. 5A-7B)), the “increase in senile plaques (total Aβ, Aβ 40, Aβ 42 staining)” value is “can be suppressed”. For the same compound, the “increase in senile plaques formed of Aβ 42” value with senile plaques (Aβ) was “can be suppressed”. Besides, on AQP 4 [1], the “AQP 4 function (H2 17O dynamics, CSF/Cortex)” value is recorded as “markedly promoted”.
Regarding `O=S(=O)(Nc1ncccc1OCc1ccccc1)c1ccccc1` [compound 2A, 2-(phenylsulfonamido)-3-benzyloxypyridine], the “increase in senile plaques formed of Aβ 42” value with senile plaques (Aβ) is “can be suppressed”. The “volume of the oocyte” value in test [2] is “significantly increased”. The “numerical values of CSF/Cortex (H2 17O dynamics; water discharge, flow of cerebrospinal fluid)” value on AQP 4 [3] is recorded as “decreased”.
